In patent publication US20050113292A1 (priority 2003, published 2005):
“And” between values parts separate entries of the source, which are not always exact repeats. Equal values may be shown once. Read-outs that look alike come from different tables or passages of the source.

Columns and labels:
T-tropic (R8) HIV-1 = conditions: for IC50: T-tropic (R8)
[1] = tested on: HIV-1 mediated cell-cell fusion (R8 virus); conditions: for EC50 / IC50: mediated cell-cell fusion (R8 virus)
M-tropic (BAL) HIV-1 = conditions: for IC50: M-tropic (BAL)
HIV-1 = assay type: cell-based
R9 HIV-1 virus = assay type: cell-based
[2] = molecular target: gp41 of M-tropic HIV-1 BAL virus (HIV-1 (BAL)); assay: cell-based or functional assay
[3] = molecular target: gp41 of T20-resistant HIV-1 virus (HIV-1 (T20-resistant virus)); assay: cell-based or functional assay
[4] = molecular target: gp41 of HIV-1 NL4-3 (HIV-1 (NL4-3)); assay: cell-based or functional assay
[5] = molecular target: gp41 of T-tropic HIV-1 R8 virus (HIV-1 (R8)); assay: cell-based or functional assay
HIV = conditions: human, in vivo; cited from earlier work

CC[C@H](C)[C@H](NC(=O)[C@H](CC(C)C)NC(=O)[C@H](CO)NC(=O)[C@H](Cc1c[nH]cn1)NC(=O)[C@@H](NC(=O)[C@H](CC(C)C)NC(=O)[C@H](CO)NC(=O)[C@@H](NC(=O)[C@H](Cc1ccc(O)cc1)NC(=O)[C@@H]1CSC(C(=O)NCCCC[C@H](NC(=O)CCNC(=O)C2N[C@H](C(=O)N[C@@H](Cc3ccc(O)cc3)C(=O)N[C@H](C(=O)N[C@@H](CO)C(=O)N[C@@H](CC(C)C)C(=O)N[C@H](C(=O)N[C@@H](Cc3c[nH]cn3)C(=O)N[C@@H](CO)C(=O)N[C@@H](CC(C)C)C(=O)N[C@H](C(=O)N[C@@H](CCC(=O)O)C(=O)N[C@@H](CCC(=O)O)C(=O)N[C@@H](CO)C(=O)N[C@@H](CCC(N)=O)C(=O)N[C@@H](CC(N)=O)C(=O)N[C@@H](CCC(N)=O)C(=O)N[C@@H](CCC(N)=O)C(=O)N[C@@H](CCC(=O)O)C(=O)N[C@@H](CCCCN)C(=O)N[C@@H](CC(N)=O)C(=O)N[C@@H](CCC(=O)O)C(=O)N[C@@H](CCC(N)=O)C(=O)N[C@@H](CCC(=O)O)C(=O)N[C@@H](CC(C)C)C(=O)N[C@@H](CC(C)C)C(=O)N[C@@H](CCC(=O)O)C(=O)N[C@@H](CC(C)C)C(=O)N[C@@H](CC(=O)O)C(=O)N[C@@H](CCCCN)C(=O)N[C@@H](Cc3c[nH]c4ccccc34)C(=O)N[C@@H](C)C(=O)N[C@@H](CO)C(=O)N[C@@H](CC(C)C)C(=O)N[C@@H](Cc3c[nH]c4ccccc34)C(=O)N[C@@H](CC(N)=O)C(=O)N[C@@H](Cc3c[nH]c4ccccc34)C(=O)N[C@@H](Cc3ccccc3)C(=O)O)[C@@H](C)CC)[C@@H](C)CC)[C@@H](C)O)CS2)C(=O)N[C@@H](CO)C(=O)N[C@@H](CO)C(=O)N[C@@H](C)C(N)=O)N1)[C@@H](C)O)[C@@H](C)CC)C(=O)N[C@@H](CCC(=O)O)C(=O)N[C@@H](CCC(=O)O)C(=O)N[C@@H](CO)C(=O)N[C@@H](CCC(N)=O)C(=O)N[C@@H](CC(N)=O)C(=O)N[C@@H](CCC(N)=O)C(=O)N[C@@H](CCC(N)=O)C(=O)N[C@@H](CCC(=O)O)C(=O)N[C@@H](CCCCN)C(=O)N[C@@H](CC(N)=O)C(=O)N[C@@H](CCC(=O)O)C(=O)N[C@@H](CCC(N)=O)C(=O)N[C@@H](CCC(=O)O)C(=O)N[C@@H](CC(C)C)C(=O)N[C@@H](CC(C)C)C(=O)N[C@@H](CCC(=O)O)C(=O)N[C@@H](CC(C)C)C(=O)N[C@@H](CC(=O)O)C(=O)N[C@@H](CCCCN)C(=O)N[C@@H](Cc1c[nH]c2ccccc12)C(=O)N[C@@H](C)C(=O)N[C@@H](CO)C(=O)N[C@@H](CC(C)C)C(=O)N[C@@H](Cc1c[nH]c2ccccc12)C(=O)N[C@@H](CC(N)=O)C(=O)N[C@@H](Cc1c[nH]c2ccccc12)C(=O)N[C@@H](Cc1ccccc1)C(=O)O (stereo partly drawn) [Compound 2α-DP178]
fold increase of potency over monomer, R8 virus (T-tropic (R8) HIV-1): 182 fold
IC50 (T-tropic (R8) HIV-1): 0.42 nM
fold increase over monomer, cell-cell fusion [1]: 122 fold
EC50 [1]: 0.18 nM
IC50 [1]: 0.18 nM
fold increase of potency over monomer, BAL virus (M-tropic (BAL) HIV-1): 14 fold
IC50 (M-tropic (BAL) HIV-1): 0.28 nM
Neutralization (%) (HIV-1): <5% and 6%
percentage of inhibition of cell infection (R9 HIV-1 virus; 0.01 µM): ~100%

CC[C@H](C)[C@H](NC(=O)[C@H](CC(C)C)NC(=O)[C@H](CO)NC(=O)[C@H](Cc1c[nH]cn1)NC(=O)[C@@H](NC(=O)[C@H](CC(C)C)NC(=O)[C@H](CO)NC(=O)[C@@H](NC(=O)[C@H](Cc1ccc(O)cc1)NC(=O)[C@H](CC(N)=O)NC(=O)[C@H](CC(N)=O)NC(=O)[C@@H](NC(=O)[C@H](CCC(=O)O)NC(=O)[C@H](CCCNC(=N)N)NC(=O)[C@H](CC(=O)O)NC(=O)[C@H](Cc1c[nH]c2ccccc12)NC(=O)[C@H](CCC(=O)O)NC(=O)[C@H](CCSC)NC(=O)[C@@H]1Cc2c([nH]c3ccccc23)C(C(=O)NCCCC[C@H](NC(=O)CCNC(=O)C2N[C@H](C(=O)N[C@@H](CCSC)C(=O)N[C@@H](CCC(=O)O)C(=O)N[C@@H](Cc3c[nH]c4ccccc34)C(=O)N[C@@H](CC(=O)O)C(=O)N[C@@H](CCCNC(=N)N)C(=O)N[C@@H](CCC(=O)O)C(=O)N[C@H](C(=O)N[C@@H](CC(N)=O)C(=O)N[C@@H](CC(N)=O)C(=O)N[C@@H](Cc3ccc(O)cc3)C(=O)N[C@H](C(=O)N[C@@H](CO)C(=O)N[C@@H](CC(C)C)C(=O)N[C@H](C(=O)N[C@@H](Cc3c[nH]cn3)C(=O)N[C@@H](CO)C(=O)N[C@@H](CC(C)C)C(=O)N[C@H](C(=O)N[C@@H](CCC(=O)O)C(=O)N[C@@H](CCC(=O)O)C(=O)N[C@@H](CO)C(=O)N[C@@H](CCC(N)=O)C(=O)N[C@@H](CC(N)=O)C(=O)N[C@@H](CCC(N)=O)C(=O)N[C@@H](CCC(N)=O)C(=O)N[C@@H](CCC(=O)O)C(=O)N[C@@H](CCCCN)C(=O)N[C@@H](CC(N)=O)C(=O)N[C@@H](CCC(=O)O)C(=O)N[C@@H](CCC(N)=O)C(=O)N[C@@H](CCC(=O)O)C(=O)N[C@@H](CC(C)C)C(=O)N[C@@H](CC(C)C)C(=O)O)[C@@H](C)CC)[C@@H](C)CC)[C@@H](C)O)[C@@H](C)CC)Cc3c2[nH]c2ccccc32)C(=O)N[C@@H](CCCCNC(=O)CNC(=O)C2N[C@H](C(=O)N[C@@H](CCSC)C(=O)N[C@@H](CCC(=O)O)C(=O)N[C@@H](Cc3c[nH]c4ccccc34)C(=O)N[C@@H](CC(=O)O)C(=O)N[C@@H](CCCNC(=N)N)C(=O)N[C@@H](CCC(=O)O)C(=O)N[C@H](C(=O)N[C@@H](CC(N)=O)C(=O)N[C@@H](CC(N)=O)C(=O)N[C@@H](Cc3ccc(O)cc3)C(=O)N[C@H](C(=O)N[C@@H](CO)C(=O)N[C@@H](CC(C)C)C(=O)N[C@H](C(=O)N[C@@H](Cc3c[nH]cn3)C(=O)N[C@@H](CO)C(=O)N[C@@H](CC(C)C)C(=O)N[C@H](C(=O)N[C@@H](CCC(=O)O)C(=O)N[C@@H](CCC(=O)O)C(=O)N[C@@H](CO)C(=O)N[C@@H](CCC(N)=O)C(=O)N[C@@H](CC(N)=O)C(=O)N[C@@H](CCC(N)=O)C(=O)N[C@@H](CCC(N)=O)C(=O)N[C@@H](CCC(=O)O)C(=O)N[C@@H](CCCCN)C(=O)N[C@@H](CC(N)=O)C(=O)N[C@@H](CCC(=O)O)C(=O)N[C@@H](CCC(N)=O)C(=O)N[C@@H](CCC(=O)O)C(=O)N[C@@H](CC(C)C)C(=O)N[C@@H](CC(C)C)C(=O)O)[C@@H](C)CC)[C@@H](C)CC)[C@@H](C)O)[C@@H](C)CC)Cc3c2[nH]c2ccccc32)C(=O)N[C@@H](CO)C(=O)N[C@@H](CO)C(=O)N[C@@H](C)C(N)=O)N1)[C@@H](C)CC)[C@@H](C)O)[C@@H](C)CC)C(=O)N[C@@H](CCC(=O)O)C(=O)N[C@@H](CCC(=O)O)C(=O)N[C@@H](CO)C(=O)N[C@@H](CCC(N)=O)C(=O)N[C@@H](CC(N)=O)C(=O)N[C@@H](CCC(N)=O)C(=O)N[C@@H](CCC(N)=O)C(=O)N[C@@H](CCC(=O)O)C(=O)N[C@@H](CCCCN)C(=O)N[C@@H](CC(N)=O)C(=O)N[C@@H](CCC(=O)O)C(=O)N[C@@H](CCC(N)=O)C(=O)N[C@@H](CCC(=O)O)C(=O)N[C@@H](CC(C)C)C(=O)N[C@@H](CC(C)C)C(=O)O (stereo partly drawn) [Compound 3α-C34]
fold increase of potency over monomer, R8 virus (T-tropic (R8) HIV-1): 42 fold
IC50 (T-tropic (R8) HIV-1): 1 nM
fold increase over monomer, cell-cell fusion [1]: 34 fold
EC50 [1]: 1 nM
IC50 [1]: 1 nM
fold increase of potency over monomer, BAL virus (M-tropic (BAL) HIV-1): 88 fold
IC50 (M-tropic (BAL) HIV-1): 0.06 nM
Neutralization (%) (HIV-1): <5%

DP178 (from UniProt P04578 638-673) (peptide)
IC50, single-cycle MAGI infectivity, BAL virus [2]: 3.9 nM
IC50, single-cycle MAGI infection of P4R5 cells, T-20 Resistant Virus [3]: 32.3 nM
IC50, single-cycle MAGI infection of P4R5 cells, NL4-3 (MT-4) [4]: 4.31 nM
IC50, HIV-1 mediated cell-cell fusion (syncytium formation), R8 virus [5]: 22.1 nM
IC50, single-cycle MAGI infectivity, R8 virus [5]: 76.4 nM

enfuvirtide
IC50 (T-20 Resistant Virus): 32.3 nM
Ratio (T-20 Resistant Virus): 7.50
IC50 (NL4-3 (MT-4)): 4.31 nM
IC50 (T-tropic (R8) HIV-1): 76.4 nM
EC50 [1]: 22.1 nM
IC50 [1]: 22.1 nM
IC50 (M-tropic (BAL) HIV-1): 3.9 nM
percentage of inhibition of cell infection (R9 HIV-1 virus; 0.5 µM): ~100%
reduction of plasma HIV RNA levels (HIV): ≤ 2 logs
